Results taken from article PMC7226106, “Population Pharmacokinetics/Pharmacodynamics of Dabrafenib Plus Trametinib in Patients with BRAF-Mutated Metastatic Melanoma” (Cancers, 2020).
Entries after “also recorded” stand apart in the source; their conditions may differ. Like-named read-outs stand apart in the source and are kept apart here.

Legend:
[1] = Population pharmacokinetic model of trametinib (NONMEM) from plasma concentrations; format: in vivo, human (patients); settings: for Vd/F: human, plasma, oral, read-out: V2/F, apparent central volume of distribution of TRA
Source text: (§1) Seventy-three outpatients treated with DAB were enrolled from July 2015 to June 2017 in this observational multicentric study including three hospitals of the Assistance Publique—Hôpitaux de Paris (Cochin, Henri Mondor, and Avicenne). To be eligible, patients needed to meet the following criteria: a minimal age of 18 years, metastatic BRAF^V600-mutated solid tumors, treatment with DAB or CombiDT with at least one available DAB concentration measurement.
(§2) DAB, dabrafenib-d9 (internal standard, IS), and TRA were purchased from LGC Standards (Molsheim, France). A custom synthesis was developed by Shanghai Medicilon (Shanghai, China) for OHD. The plasma concentrations were assayed using a validated high-performance liquid chromatography-tandem mass spectrometry (HPLC-MS/MS) (ATSQ Quantum Ultra®mass spectrometer, ThermoFisher, Les Ulis, France). Chromatographic separation was performed on Accucore® C18 (2.1 × 50 mm; 2.6 µm) analytical column (ThermoFisher Scientific, Les Ulis, France) associated with a guard column packed with the same bonded phase. Two hundred microliters (µL) aliquot of plasma (calibration standard, internal quality control or patient sample) was mixed with 20 µL of IS solution. Then 600 µL acetonitrile with 1% (v/v) formic acid was added. Samples were mixed and centrifuged, and the supernatant was evaporated and recovered with 200 µL of mobile phase: water/methanol (70:30%, v/v) with formic acid (0.1% v/v). Ten microliters of this mixture were injected into the HPLC-MS/MS system. The calibration standards ranged from 10 to 2000 ng/mL for DAB and OHD and from 5 to 50 ng/mL for TRA.
(§3) Blood samples were collected in heparinized tubes during the treatment course, and the exact sample time was recorded. Plasma was separated by centrifugation (3000 rpm, 5 min), and stored at −20 °C until analysis.
(§4) The non-linear mixed effects modeling program NONMEM v7.4.1 [34] with the Perl-Speaks NONMEM (PsN) Toolkit v4.8.0 [35] was used to build DAB/OHD and TRA models. Pirana v2.9.2 was used to assist in model development. […] Molar units were used for DAB/OHD analyses. Plasma samples with concentrations below the lower limit of quantification of the assay, non-reliable time information about blood sampling, or without dose information were excluded from the analysis.
(§5) A stepwise strategy was used to identify the base models that best fitted DAB/OHD and TRA pharmacokinetic data. Different structural models such as one or two compartments, with linear absorption with or without lag time, were compared. DAB and OHD were modeled simultaneously testing multi-compartment models for both compounds. We hypothesized that DAB was cleared by complete oxidation to OHD, since it is not eliminated as unchanged molecule in urine and accounts for less than 22% in feces. Moreover, the first-order absorption rate constant (ka) of DAB was fixed to 1.8 h^−1 according to a previously published value to allow an adequate estimate of all pharmacokinetic parameters. Since DAB and TRA are administered orally, the pharmacokinetic parameters represent apparent values. Exponential errors following a log-normal distribution were assumed for the description of IIV of all the pharmacokinetic parameters. Inter-occasion variability (IOV) was tested in both DAB/OHD and TRA models to assess differences in individual parameters across study occasions. Additive, proportional, and mixed error models were compared to depict the residual unexplained variability (RUV) for both drugs and metabolite. The correlation between DAB and OHD data was tested using the L2 item in NONMEM. […]

[2] = system: BRAF^V600-mutated MM patients; experiment: Safety: adverse events and dose-limiting toxicities (DLT) under CombiDT; settings: human, in vivo
Procedure: Patients initiated DAB at the recommended daily dose of 150 mg twice daily. In patients treated with CombiDT, TRA was started at 2 mg once daily. Reduced starting doses were allowed at physician discretion based on comorbidities and patients’ general condition. All AE were graded using the National Cancer Institute Common Toxicity Criteria v4.0. DAB treatment was continued until disease progression, unacceptable toxicity, or unfitness to receive it.

[3] = system: BRAF^V600-mutated metastatic melanoma; experiment: Survival (PFS, OS) and Cox exposure-survival analysis under CombiDT; format: in vivo, human (patients); settings: for Risk of Death, HR (CI95%) for AUCM3 / Risk of Progression, HR (CI95%) for AUCM3: n = 30
Procedure: (§6) Pharmacokinetic/pharmacodynamic analysis was conducted in BRAF^V600-mutated MM patients concomitantly treated with CombiDT. Regarding safety, the onset of DLT was considered as the clinical endpoint. A DLT was defined as any toxicity leading to dose reduction or temporary or permanent discontinuation of treatment. Regarding survival, the primary end point was progression free survival (PFS), the time from DAB and TRA treatment initiation to documented progression event (either clinical or radiological progression) or death from any cause. The secondary end-point was overall survival (OS), defined as the time from DAB and TRA treatment initiation to death from any cause. Radiographic evidence of progression was defined according to modified Response Evaluation Criteria in Solid Tumor (RECIST) v1.1 [41].
Multivariate Cox models according to a stepwise procedure were tested including all variables which were significant at 5% level in the univariate analyses.

[4] = Model-estimated systemic exposure (AUC) in BRAF^V600-mutated MM patients treated with CombiDT; settings: for AUC: human, plasma, oral
Procedure: as §6
(§7) Systemic exposures to DAB, OHD, and TRA (AUCDAB, AUCOHD, and AUCTRA, respectively) were calculated with classic equations, composite DAB and OHD AUC (AUCDAB+OHD) as previously explained and AUCOHD/DAB as the ratio of AUCOHD over AUCDAB. Univariate Fisher and Wilcoxon models were performed to identify which parameters could contribute to the onset of DLT. The following variables were tested: sex, age at treatment initiation, BMI, Eastern Cooperative Oncology Group Performance Status (ECOG PS: grade 0-1 vs ≥2), lactate dehydrogenase (LDH) level (<1.5N vs. ≥1.5N), AUCDAB, AUDOHD, AUCDAB+OHD, and AUCTRA.
(§8) Multivariate Cox models according to a stepwise procedure were tested including all variables which were significant at 5% level in the univariate analyses. All the pharmacokinetic/pharmacodynamic analyses were performed using R program v3.6.1 with RStudio v1.1.383 (http://www.r-project.org).

[5] = Population pharmacokinetic model of dabrafenib/hydroxy-dabrafenib (NONMEM) from plasma concentrations; format: in vivo, human (patients)
Source text: as §1, §2, §3, §4, §5

[6] = human, in vivo
Procedure: as §6, §7, §8

[7] = system: mutant BRAF; set-up: method as in PMID 24958809; settings: in vitro study; cited from earlier work
[8] = set-up: method as in earlier work; settings: preclinical data; cited from earlier work
[9] = cited from earlier work
[10] = bootstrap median (n = 500 samples)
[11] = multivariate Cox model with ECOG PS ≥2

CC(=O)Nc1cccc(-n2c(=O)n(C3CC3)c(=O)c3c(Nc4ccc(I)cc4F)n(C)c(=O)c(C)c32)c1 [TRA, trametinib]
CL/F, apparent clearance of TRA [1, 10]: 5.82 L/h
IIV CL/F, interindividual variability (coefficient of variation) [1, 10]: 28.6%
IIV Q, interindividual variability (coefficient of variation) [1, 10]: 80.1%
RUV, residual unexplained variability (additive error) [1, 10]: 4.10 ng/mL
Tlag, lag time [1, 10]: 0.728 h
ka, first order absorption rate constant [1, 10]: 1.04 h⁻¹
IIV CL/F, interindividual variability (coefficient of variation) ([1]; final TRA model): 29.6%
IIV Q, interindividual variability (coefficient of variation) ([1]; final TRA model): 80.2%
RUV, residual unexplained variability (additive error) ([1]; final TRA model): 4.14 ng/mL
Tlag, lag time ([1]; final TRA model): 0.709 h
ka, first order absorption rate constant ([1]; final TRA model): 0.913 h⁻¹
CL/F, apparent clearance of TRA ([1]; final TRA model, n = 60): 5.83 L/h
Vd/F [1, 10]: 65.1 L
Vd/F ([1]; final TRA model): 61.9 L
median time to onset of drug-related DLT [2]: 104 days
patients in whom the drug dose was reduced [2]: 23%
patients in whom the drug was discontinued permanently [2]: 10%
patients who experienced a drug-related DLT [2]: 33%
Risk of Death, HR (CI95%) for AUCM3 ([3]; univariate Cox model): 1.37 (0.94–1.98)
Risk of Progression, HR (CI95%) for AUCM3 ([3]; univariate Cox model): 1.31 (0.93–1.83)
AUC ([4]; AUCTRA, median (range), patients with TRA-related DLT (n = 17), last AUC before onset of DLT): 268 ng·h/mL
AUC ([4]; AUCTRA, median (range), patients without TRA-related DLT (n = 35), average AUC over treatment course): 268 ng·h/mL
AUC ([4]; median AUCM3 (mean AUC during the first three months of treatment), 30 MM patients of the exposure-survival analysis): 292 ng·h/mL

CC(C)(CO)c1nc(-c2cccc(NS(=O)(=O)c3c(F)cccc3F)c2F)c(-c2ccnc(N)n2)s1 [OHD, hydroxy-dabrafenib]
difference in pharmacokinetics ([5]; DAB monotherapy vs. combiDT (ΔOFV = −2.9, p > 0.05)): did not differ
CLm/F, apparent clearance of OHD ([5]; base DAB/OHD model): 22.8 L/h
IIV CLm/F, interindividual variability (coefficient of variation) ([5]; base DAB/OHD model): 26.8%
IIV V3/F, interindividual variability (coefficient of variation) ([5]; base DAB/OHD model): 84.0%
RUV of OHD, residual unexplained variability (proportional) ([5]; base DAB/OHD model): 53.1%
CLm/F, apparent clearance of OHD [5, 10]: 22.9 L/h
IIV CLm/F, interindividual variability (coefficient of variation) [5, 10]: 21.8%
IIV V3/F, interindividual variability (coefficient of variation) [5, 10]: 82.0%
RUV of OHD, residual unexplained variability (proportional) [5, 10]: 52.7%
θage/(CLm/F), Age effect on CLm/F [5, 10]: −0.543
difference in pharmacokinetics ([5]; concomitant proton-pump inhibitor (PPI) intake (ΔOFV = −3.5, p > 0.05)): did not differ
CLm/F, apparent clearance of OHD ([5]; final DAB/OHD model): 23.2 L/h
IIV CLm/F, interindividual variability (coefficient of variation) ([5]; final DAB/OHD model): 24.0%
IIV V3/F, interindividual variability (coefficient of variation) ([5]; final DAB/OHD model): 47.5%
RUV of OHD, residual unexplained variability (proportional) ([5]; final DAB/OHD model): 53.1%
θage/(CLm/F), Age effect on CLm/F ([5]; final DAB/OHD model, median age 61.2 years): −0.589
base model variance of clearance explained by covariates (sex, age) ([5]; in vivo): 20%
decrease in CLm/F ([5]; same age variation (20 to 90 years)): 51%
Risk of Death, HR (CI95%) for AUCM3,OHD [3, 11]: 1.61 (1.07–2.45)
Risk of Death, HR (CI95%) for AUCM3,OHD/DAB ratio ≥ 1 [3, 11]: 10.61 (2.34–48.15)
Risk of Progression, HR (CI95%) for AUCM3,OHD ([3]; multivariate Cox model with cerebral metastases): 1.29 (0.99–1.68)
Risk of Progression, HR (CI95%) for AUCM3,OHD ([3]; multivariate Cox model with number of metastasis site ≥3): 1.27 (0.97–1.68)
Risk of Death, HR (CI95%) for AUCM3,OHD/AUCM3,DAB ratio ≥ 1 vs. < 1 ([3]; univariate Cox model): 4.11 (1.18–14.29)
Risk of Progression, HR (CI95%) for AUCM3,OHD/AUCM3,DAB ratio ≥ 1 vs. < 1 ([3]; univariate Cox model): 1.66 (0.62–4.46)
Risk of Death, HR (CI95%) for AUCM3 ([3]; univariate Cox model): 1.64 (1.09–2.48)
Risk of Progression, HR (CI95%) for AUCM3 ([3]; univariate Cox model): 1.37 (1.02–1.83)
median AUCOHD/AUCDAB ratio [6]: 0.80 (0.50–1.32)
potency as an inhibitor of mutant BRAF compared to DAB [7]: two-fold higher pharmacological potency; also recorded: twofold higher potency
passage of the intact blood brain barrier [8]: lack of OHD diffusion into the brain
mean OHD-to-DAB exposure ratio in plasma [9]: 0.8
median AUCM3 (mean AUC during the first three months of treatment) ([4]; 30 MM patients of the exposure-survival analysis): 6082 ng·h/mL
AUCM3,OHD/AUCM3,DAB ratio ([4]; patients experiencing cerebral progression): 0.9 (0.5–1.3)
AUC, median (range) ([4]; patients with DAB-related DLT (n = 12), last AUC before onset of DLT): 7509.5 (4918–10300) ng∙h/mL
AUCM3,OHD/AUCM3,DAB ratio ([4]; patients with extra-cerebral progression): 0.8 (0.6–0.8)
AUC, median (range) ([4]; patients without DAB-related DLT (n = 40), average AUC over treatment course): 5812 (2459–10300) ng∙h/mL

CC(C)c1nc(-c2cccc(NS(=O)(=O)c3c(F)cccc3F)c2F)c(-c2ccnc(N)n2)s1 [desmethyl-dabrafenib]
passage of the intact blood brain barrier [8]: may cross intact blood brain barrier
